Assay results from US8138168B1 (Takeda Pharmaceutical Company Limited, priority 2007, dated 2012).

Molecular target: T1, Recombinant human renin (Homo sapiens, UniProt P00797)
T1 construct: isolate the active form (residues 67-406); made in house; host or cells: FreeStyle 293-F cells (transient expression of pcDNA3.1(+)/hREN)
T1 sequence (P00797 67-406): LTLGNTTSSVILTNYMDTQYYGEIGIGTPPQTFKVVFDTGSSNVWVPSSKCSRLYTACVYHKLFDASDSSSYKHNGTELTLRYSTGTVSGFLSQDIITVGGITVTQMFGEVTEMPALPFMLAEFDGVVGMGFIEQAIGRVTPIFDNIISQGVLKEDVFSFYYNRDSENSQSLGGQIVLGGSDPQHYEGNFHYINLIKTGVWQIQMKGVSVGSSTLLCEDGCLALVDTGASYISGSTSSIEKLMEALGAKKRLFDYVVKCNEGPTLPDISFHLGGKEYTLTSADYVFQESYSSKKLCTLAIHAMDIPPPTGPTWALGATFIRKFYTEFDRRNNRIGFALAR
Experiment: In vitro enzymatic activity assay of renin inhibitors (fluorogenic peptide substrate)
Assay type: biochemical
Details: read-out: IC50 of Exemplified Compounds Against Renin
In short: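 Enzyme: recombinant human renin, 3 nM final, 10 min compound pre-incubation at 37 °C; buffer 50 mM Hepes pH 7.4 with 0.1 mg/mL BSA or extra 2% BSA; 5% DMSO.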

Structure (SMILES)	IC50 [µM]
O=C([C@H]1CCCN1)N1CCCC(c2nc3ccccc3[nH]2)C1 (stereo partly drawn) [Compound 54, (3-(1H-benzo[d]imidazol-2-yl)piperidin-1-yl)((R)-pyrrolidin-2-yl)methanone]	> 1
CC(=O)NCCn1c([C@@H]2CCCN(C(=O)C[C@H](N)Cc3ccc(-c4ccc5c(c4)OCCO5)cc3)C2)nc2c(C)cccc21 [Compound 477, N-(2-(2-((R)-1-((R)-3-amino-4-(4-(2,3-dihydrobenzo[b][1,4]dioxin-6-yl)phenyl)butanoyl)piperidin-3-yl)-4-methyl-1H-benzo[d]imidazol-1-yl)ethyl)acetamide]	0.1 to 1
COCCCn1c([C@@H]2CCCN(C(=O)[C@@H]3CN(S(=O)(=O)c4ccc(C#N)cc4Cl)C[C@H]3N)C2)nc2ccccc21 [Compound 391, 4-((3S,4R)-3-amino-4-((R)-3-(1-(3-methoxypropyl)-1H-benzo[d]imidazol-2-yl)piperidine-1-carbonyl)pyrrolidin-1-ylsulfonyl)-3-chlorobenzonitrile]	> 1
CC(=O)NCCn1c([C@@H]2CCCN(C(=O)C[C@H](N)Cc3ccc(-c4ccc(N)nc4)cc3)C2)nc2c(C)cccc21 [Compound 471, N-(2-(2-((R)-1-((R)-3-amino-4-(4-(6-aminopyridin-3-yl)phenyl)butanoyl)piperidin-3-yl)-4-methyl-1H-benzo[d]imidazol-1-yl)ethyl)acetamide]	0.1 to 1
N[C@H](C(=O)N1CCCC(c2nc3ccccc3[nH]2)C1)C1CCCCC1 (stereo partly drawn) [Compound 61, (2S)-1-(3-(1H-benzo[d]imidazol-2-yl)piperidin-1-yl)-2-amino-2-cyclohexylethanone]	> 1
COCCCn1c([C@@H]2CCCN(C(=O)[C@@H]3CN(S(=O)(=O)c4cccc(OC(F)F)c4)C[C@H]3N)C2)nc2ccccc21 [Compound 419, ((3R,4S)-4-amino-1-(3-(difluoromethoxy)phenylsulfonyl)pyrrolidin-3-yl)((R)-3-(1-(3-methoxypropyl)-1H-benzo[d]imidazol-2-yl)piperidin-1-yl)methanone]	> 1
COCCCn1c([C@@H]2CCCN(C(=O)[C@@H]3CN(S(=O)(=O)c4cc(Cl)ccc4Cl)C[C@H]3N)C2)nc2ccccc21 [Compound 343, ((3R,4S)-4-amino-1-(2,5-dichlorophenylsulfonyl)pyrrolidin-3-yl)((R)-3-(1-(3-methoxypropyl)-1H-benzo[d]imidazol-2-yl)piperidin-1-yl)methanone]	0.1 to 1
COCCCn1c([C@@H]2CCCN(C(=O)[C@@H]3CN(C(=O)c4ccc(-c5ccccc5)o4)C[C@H]3N)C2)nc2ccccc21 [Compound 352, ((3R,4S)-4-amino-1-(5-phenylfuran-2-carbonyl)pyrrolidin-3-yl)((R)-3-(1-(3-methoxypropyl)-1H-benzo[d]imidazol-2-yl)piperidin-1-yl)methanone]	0.1 to 1
COCCCn1c([C@@H]2CCCN(C(=O)C[C@H](N)Cc3ccc4ccccc4c3)C2)nc2ccc(Cl)nc21 [Compound 502, (3R)-3-amino-1-(3-(5-chloro-3-(3-methoxypropyl)-3H-imidazo[4,5-b]pyridin-2-yl)piperidin-1-yl)-4-(naphthalen-2-yl)butan-1-one]	> 1
O=C(Nc1cccnc1)N1CCCC(c2nc3ccccc3[nH]2)C1 (stereo not shown) [Compound 20, 3-(1H-benzo[d]imidazol-2-yl)-N-(pyridin-3-yl)piperidine-1-carboxamide]	> 1
CNC(Cc1ccccc1)C(=O)N1CCCC(c2nc3ccccc3[nH]2)C1 (stereo not shown) [Compound 64, 1-(3-(1H-benzo[d]imidazol-2-yl)piperidin-1-yl)-2-(methylamino)-3-phenylpropan-1-one]	> 1
COCCCn1c([C@@H]2CCCN(C(=O)[C@@H]3CN(C(=O)c4ccco4)C[C@H]3N)C2)nc2ccccc21 [Compound 420, ((3R,4S)-4-amino-1-(furan-2-carbonyl)pyrrolidin-3-yl)((R)-3-(1-(3-methoxypropyl)-1H-benzo[d]imidazol-2-yl)piperidin-1-yl)methanone]	> 1
N[C@@H](CC(=O)N1CCCC(c2nc3ccccc3[nH]2)C1)Cc1ccc(Cl)cc1 (stereo partly drawn) [Compound 23, (3R)-1-(3-(1H-Benzo[d]imidazol-2-yl)piperidin-1-yl)-3-amino-4-(4-chlorophenyl)butan-1-one]	> 1
COCCCn1c([C@@H]2CCCN(C(=O)[C@@H]3CN(S(=O)(=O)c4ccc(C)cc4C)C[C@H]3N)C2)nc2ccccc21 [Compound 383, ((3R,4S)-4-amino-1-(2,4-dimethylphenylsulfonyl)pyrrolidin-3-yl)((R)-3-(1-(3-methoxypropyl)-1H-benzo[d]imidazol-2-yl)piperidin-1-yl)methanone]	0.1 to 1
N[C@@H](CC(=O)N1CCCC(c2nc3ccccc3[nH]2)C1)c1ccc(C(F)(F)F)cc1 (stereo partly drawn) [Compound 25, (3S)-1-(3-(1H-benzo[d]imidazol-2-yl)piperidin-1-yl)-3-amino-3-(4-(trifluoromethyl)phenyl)propan-1-one]	> 1
COCCCn1c([C@@H]2CCCN(C(=O)C[C@H](N)Cc3ccc(-c4ccc5c(c4)CC(=O)N5C)cc3)C2)nc2c(C)cccc21 [Compound 498, 5-(4-((R)-2-amino-4-((R)-3-(1-(3-methoxypropyl)-4-methyl-1H-benzo[d]imidazol-2-yl)piperidin-1-yl)-4-oxobutyl)phenyl)-1-methylindolin-2-one]	< 0.1
COCCCn1c([C@@H]2CCCN(C(=O)[C@@H]3CN(S(=O)(=O)c4cc(C)ccc4C#N)C[C@H]3N)C2)nc2ccccc21 [Compound 403, 2-((3S,4R)-3-amino-4-((R)-3-(1-(3-methoxypropyl)-1H-benzo[d]imidazol-2-yl)piperidine-1-carbonyl)pyrrolidin-1-ylsulfonyl)-4-methylbenzonitrile]	> 1

Other lines, results leading:

IC50 [µM]	Structure (SMILES)
< 0.1	COCCCn1c([C@@H]2CCCN(C(=O)C[C@H](N)Cc3ccc(N4CCC(CCO)CC4)cc3)C2)nc2ccccc21 [Compound 236, (R)-3-amino-4-(4-(4-(2-hydroxyethyl)piperidin-1-yl)phenyl)-1-((R)-3-(1-(3-methoxypropyl)-1H-benzo[d]imidazol-2-yl)piperidin-1-yl)butan-1-one]
< 0.1	COCCCn1c([C@@H]2CCCN(C(=O)C[C@H](N)Cc3ccc(-c4ccc5oc(=O)[nH]c5c4)cc3)C2)nc2c(F)cccc21 [Compound 460, 5-(4-((R)-2-amino-4-((R)-3-(4-fluoro-1-(3-methoxypropyl)-1H-benzo[d]imidazol-2-yl)piperidin-1-yl)-4-oxobutyl)phenyl)benzo[d]oxazol-2(3H)-one]
> 1	COCCCn1c([C@H]2CCCN(C(=O)C[C@H](N)Cc3ccc(Cl)cc3)C2)nc2ccccc21 [Compound 68, (R)-3-amino-4-(4-chlorophenyl)-1-((S)-3-(1-(3-methoxypropyl)-1H-benzo[d]imidazol-2-yl)piperidin-1-yl)butan-1-one]
< 0.1	COCCCn1c([C@@H]2CCCN(C(=O)C[C@H](N)Cc3ccc(-c4ccoc4)cc3)C2)nc2ccccc21 [Compound 145, (R)-3-amino-4-(4-(furan-3-yl)phenyl)-1-((R)-3-(1-(3-methoxypropyl)-1H-benzo[d]imidazol-2-yl)piperidin-1-yl)butan-1-one]
< 0.1	COCCCn1c([C@@H]2CCCN(C(=O)C[C@H](N)Cc3ccc(-n4ccc5ccccc5c4=O)cc3)C2)nc2ccccc21 [Compound 229, 2-(4-((R)-2-amino-4-((R)-3-(1-(3-methoxypropyl)-1H-benzo[d]imidazol-2-yl)piperidin-1-yl)-4-oxobutyl)phenyl)isoquinolin-1(2H)-one]
< 0.1	COCCCn1c([C@@H]2CCCN(C(=O)C[C@H](N)Cc3ccc(-n4c(=O)oc5ccccc54)cc3)C2)nc2ccccc21 [Compound 211]
0.1 to 1	COCCCn1c([C@@H]2CCCN(C(=O)C[C@H](N)Cc3ccc4ccccc4c3)C2)nc2ccc(C#N)cc21 [Compound 109, 2-((R)-1-((R)-3-amino-4-(naphthalen-2-yl)butanoyl)piperidin-3-yl)-1-(3-methoxypropyl)-1H-benzo[d]imidazole-6-carbonitrite]
0.1 to 1	COCCCn1c([C@@H]2CCCN(C(=O)C[C@H](N)Cc3ccc4ccccc4c3)C2)nc2ccc(F)cc21 [Compound 95, (R)-3-amino-1((R)-3-(6-fluoro-1-(3-methoxypropyl)-1H-benzo[d]imidazol-2-yl)piperidin-1-yl)-4-(naphthalen-2-yl)butan-1-one]
< 0.1	COCCCn1c([C@@H]2CCCN(C(=O)C[C@H](N)Cc3ccc(-c4ccc(N5CCNC5=O)cc4)cc3)C2)nc2ccccc21 [Compound 436, 1-(4′-((R)-2-amino-4-((R)-3-(1-(3-methoxypropyl)-1H-benzo[d]imidazol-2-yl)piperidin-1-yl)-4-oxobutyl)biphenyl-4-yl)imidazolidin-2-one]
< 0.1	COCCCn1c([C@@H]2CCCN(C(=O)C[C@H](N)Cc3ccc(-c4ccc(OC(C)C)nc4)cc3)C2)nc2ccccc21 [Compound 142, (R)-3-amino-4-(4-(6-isopropoxypyridin-3-yl)phenyl)-1-((R)-3-(1-(3-methoxypropyl)-1H-benzo[d]imidazol-2-yl)piperidin-1-yl)butan-1-one]
< 0.1	COCCCn1c([C@@H]2CCCN(C(=O)C[C@H](N)Cc3ccc(-c4ccc(C(=O)OC)cc4)cc3)C2)nc2ccccc21 [Compound 123, methyl 4′-((R)-2-amino-4-((R)-3-(1-(3-methoxypropyl)-1H-benzo[d]imidazol-2-yl)piperidin-1-yl)-4-oxobutyl)biphenyl-4-carboxylate]
